Measurements taken from patent publication US8785445B2 (Array BioPharma Inc., priority 2008, dated 2014).
Read-outs that look alike come from different tables or passages of the source.

Molecular target: T1, human DP2 (Homo sapiens, UniProt Q9Y5Y4)
T1 construct: expressed in transfected cells; membranes prepared
T1 sequence (Q9Y5Y4 1-395): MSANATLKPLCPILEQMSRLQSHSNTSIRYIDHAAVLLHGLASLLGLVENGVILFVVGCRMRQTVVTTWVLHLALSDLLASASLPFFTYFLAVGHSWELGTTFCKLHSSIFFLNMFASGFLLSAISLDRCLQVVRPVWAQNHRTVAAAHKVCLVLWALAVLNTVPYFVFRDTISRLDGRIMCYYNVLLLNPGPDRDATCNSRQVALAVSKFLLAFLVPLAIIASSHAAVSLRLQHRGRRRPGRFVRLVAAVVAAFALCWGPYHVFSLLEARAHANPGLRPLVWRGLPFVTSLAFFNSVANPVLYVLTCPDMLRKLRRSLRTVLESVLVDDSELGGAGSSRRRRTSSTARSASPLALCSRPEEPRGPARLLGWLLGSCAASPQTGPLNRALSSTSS
Assay: DP-2 binding inhibition assay (3H-PGD2, membranes of DP2-expressing K562 cells)
Protocol: The coding sequence of human DP2 was introduced into the human Leukemic cell line K562 by electroporation and stable clones expressing DP2 were obtained by limiting dilution followed by cell surface staining with a rat monoclonal antibody specific for human DP2. Membranes were prepared from one of these DP2 expressing clones and used to determine the ability of the compounds of the present invention to inhibit binding of prostaglandin D2 (PGD2) to its receptor DP2 in the presence of one or more of the following serum protein concentrations, 0.1% BSA, 1% HSA or 4% HSA, by the following procedure. […] After incubation for 60 minutes at room temperature, the assay was transferred to a filtration plate (#MAFB; Millipore Corporation, Bedford, Mass.), and washed three times with binding buffer. Radioactivity was measured by a scintillation counter (TopCount; PerkinElmer Life Sciences, Boston, Mass.). Nonspecific binding was determined by incubations in the presence of 1 μM unlabeled PGD2 or 5 μM of a known DP2 antagonist. IC50 values for inhibition of binding were determined for each compound tested from the inflexion point of a standard 4-parameter logistical curve fitted to the values obtained.

[1] = 0.1% BSA, read-out: EC50 (nM) 0.1% BSA
[2] = 1% HSA, read-out: EC50 (nM) 1% HSA
[3] = 4% HSA, read-out: EC50 (nM) 4% HSA

EC50 [1] [nM] | EC50 [2] [nM] | EC50 [3] [nM] | Compound
13 | 120 | 134 | O=C(Nc1ccc2cc(Cl)ccc2n1)c1ccc(Oc2cc3c(cc2Cl)C(C(=O)O)CCO3)cc1 (centres unmarked) [Example 30, 6-Chloro-7-(4-(6-chloroquinolin-2-ylcarbamoyl)phenoxy)chroman-4-carboxylic acid]
492 | – | – | N#Cc1cc2c(cc1Oc1ccc(C(=O)Nc3ccc4[nH]ncc4c3)cc1)OCCC2C(=O)O (centres unmarked) [Example 192, 7-(4-(1H-indazol-5-ylcarbamoyl)phenoxy)-6-cyanochroman-4-carboxylic acid]
37.8 | – | – | N#Cc1cc2c(cc1Oc1ccc(C(=O)Nc3cnc4ccccc4c3)cc1)OCCC2C(=O)O (centres unmarked) [Example 10, 6-Cyano-7-(4-(quinolin-3-ylcarbamoyl)phenoxy)chroman-4-carboxylic acid]
– | – | 695 | N#Cc1cc2c(cc1Oc1ccc(C(=O)Nc3ncc4cc(Cl)ccc4n3)cc1)OCCC2C(=O)O (centres unmarked) [Example 8, 7-(4-(6-Chloroquinazolin-2-ylcarbamoyl)phenoxy)-6-cyanochroman-4-carboxylic acid]
– | – | 1110 | O=C(Nc1ccc(-c2ccc(Cl)cc2F)nn1)c1ccc(Oc2cc3c(cc2Cl)C(C(=O)O)CCO3)cc1 (centres unmarked) [Example 72, Sodium 6-chloro-7-(4-(6-(4-chloro-2-fluorophenyl)pyridazin-3-ylcarbamoyl)phenoxy)chroman-4-carboxylate]
– | – | 794 | COc1ccc(-c2ccc(NC(=O)c3ccc(Oc4cc5c(cc4Cl)C(C(=O)O)CCO5)cc3)nc2)c(OC)n1 (centres unmarked) [Example 74, Sodium 6-chloro-7-(4-(2′,6′-dimethoxy-3,3′-bipyridin-6-ylcarbamoyl)phenoxy)chroman-4-carboxylate]
– | – | 2230 | O=C(NCCn1ccc(Cl)cc1=O)c1ccc(Oc2cc3c(cc2Cl)C(C(=O)O)CCO3)cc1 (centres unmarked) [Example 216, 6-chloro-7-(4-(2-(4-chloro-2-oxopyridin-1(2H)-yl)ethylcarbamoyl)phenoxy)chroman-4-carboxylic acid]
– | – | 84 | O=C(Nc1ccc2cc(Cl)ccc2n1)c1ccc(Oc2cc3c(cc2Cl)[C@H](C(=O)O)CCO3)cc1 (single isomer, unassigned; enantiomer 1) [Example 36, 6-Chloro-7-(4-(6-chloroquinolin-2-ylcarbamoyl)phenoxy)chroman-4-carboxylic acid, Enantiomer 1]
– | – | 46.8 | O=C(Nc1ccn(-c2ccc(F)c(Cl)c2)n1)c1ccc(Oc2cc3c(cc2Cl)C(C(=O)O)CCO3)cc1 (centres unmarked) [Example 167, 6-chloro-7-(4-(1-(3-chloro-4-fluorophenyl)-1H-pyrazol-3-ylcarbamoyl)phenoxy)chroman-4-carboxylic acid]
– | – | 951 | Cn1nc(C(C)(C)C)cc1NC(=O)c1ccc(Oc2cc3c(cc2Cl)C(C(=O)O)CCO3)cc1 (centres unmarked) [Example 178, 7-(4-(3-tert-butyl-1-methyl-1H-pyrazol-5-ylcarbamoyl)phenoxy)-6-chlorochroman-4-carboxylic acid]
– | – | 157 | CC(C)c1csc(NC(=O)c2ccc(Oc3cc4c(cc3Cl)C(C(=O)O)CCO4)cc2)n1 (centres unmarked) [Example 156, 6-chloro-7-(4-(4-isopropylthiazol-2-ylcarbamoyl)phenoxy)chroman-4-carboxylic acid]
– | – | 586 | O=C(Nc1ccc2ccccc2n1)c1ccc(Oc2cc3c(cc2Cl)C(C(=O)O)CCO3)cc1 (centres unmarked) [Example 23, 6-Chloro-7-(4-(quinolin-2-ylcarbamoyl)phenoxy)chroman-4-carboxylic acid]
– | – | 1350 | COc1ccc(-c2cccc(CCNC(=O)c3ccc(Oc4cc5c(cc4Cl)C(C(=O)O)CCO5)cc3)n2)cc1 (centres unmarked) [Example 214, 6-chloro-7-(4-(2-(6-(4-methoxyphenyl)pyridin-2-yl)ethylcarbamoyl)phenoxy)chroman-4-carboxylic acid]
– | – | 52.2 | O=C(Nc1cccc(-c2ccc(Cl)cc2)n1)c1ccc(Oc2c(C3CC3)cc3c(c2C2CC2)OCCC3C(=O)O)cc1 (centres unmarked) [Example 107, Sodium 7-(4-(6-(4-chlorophenyl)pyridin-2-ylcarbamoyl)phenoxy)-6,8-dicyclopropylchroman-4-carboxylate]
34.7 | 661 | 49.5 | O=C(Nc1ccc(C(F)(F)F)nc1)c1ccc(Oc2cc3c(cc2Cl)C(C(=O)O)CCO3)cc1 (centres unmarked) [Example 29, 6-Chloro-7-(4-(6-(trifluoromethyl)pyridin-3-ylcarbamoyl)phenoxy)chroman-4-carboxylic acid]
– | – | 2580 | O=C(Nc1cc(-c2ccccc2Cl)ccn1)c1ccc(Oc2cc3c(cc2Cl)C(C(=O)O)CCO3)cc1 (centres unmarked) [Example 122, 6-Chloro-7-(4-(4-(2-chlorophenyl)pyridin-2-ylcarbamoyl)phenoxy)chroman-4-carboxylic acid]

EC50 [1] [nM] | EC50 [2] [nM] | EC50 [3] [nM] | Compound
17.9 | 207 | 409 | O=C(Nc1cnc2cc(Cl)ccc2n1)c1ccc(Oc2cc3c(cc2Cl)C(C(=O)O)CCO3)cc1 (centres unmarked) [Example 15, 6-Chloro-7-(4-(6-chloroquinoxalin-2-ylcarbamoyl)phenoxy)chroman-4-carboxylic acid]
– | – | 404 | COc1cccc(CCNC(=O)c2ccc(Oc3cc4c(cc3Cl)C(C(=O)O)CCO4)cc2)n1 (centres unmarked) [Example 218, 6-chloro-7-(4-(2-(6-methoxypyridin-2-yl)ethylcarbamoyl)phenoxy) chroman-4-carboxylic acid]
– | – | 5000 | O=C(Nc1cccc(-c2ccc(Cl)cc2)n1)c1ccc(Oc2cc3c(cc2Cl)C(C(=O)O)CCO3)cc1 (stereo in doubt) [Example 206, (R)-6-chloro-7-(4-(6-(4-chlorophenyl)pyridin-2-ylcarbamoyl)phenoxy) chroman-4-carboxylic acid]
– | – | 422 | O=C(Nc1ccc(-c2cccc(C(F)(F)F)c2)cn1)c1ccc(Oc2cc3c(cc2Cl)C(C(=O)O)CCO3)cc1 (centres unmarked) [Example 119]
– | – | 3440 | N#Cc1cc2c(cc1Oc1ccc(C(=O)Nc3nnc(-c4ccc(Cl)cc4)s3)cc1)OCCC2C(=O)O (centres unmarked) [Example 147, 7-(4-(5-(4-chlorophenyl)-1,3,4-thiadiazol-2-ylcarbamoyl)phenoxy)-6-cyanochroman-4-carboxylic acid]
– | – | 42.1 | COc1nc(C2CC2)ccc1CCNC(=O)c1ccc(Oc2cc3c(cc2Cl)C(C(=O)O)CCO3)cc1 (centres unmarked) [Example 184, Sodium 6-Chloro-7-(4-(2-(6-cyclopropyl-2-methoxypyridin-3-yl)ethylcarbamoyl)phenoxy)chroman-4-carboxylate]
– | – | 306 | O=C(Nc1ccc(-c2ccc(F)cc2)nn1)c1ccc(Oc2cc3c(cc2Cl)C(C(=O)O)CCO3)cc1 (centres unmarked) [Example 66, Sodium 6-chloro-7-(4-(6-(4-fluorophenyl)pyridazin-3-ylcarbamoyl)phenoxy)chroman-4-carboxylate]
47.6 | 183 | – | N#Cc1cc2c(cc1Oc1ccc(C(=O)NCCc3ccc(C(F)(F)F)cn3)cc1)OCCC2C(=O)O (centres unmarked) [Example 11]
– | – | 379 | COc1ncc(CCNC(=O)c2ccc(Oc3cc4c(cc3Cl)C(C(=O)O)CCO4)cc2)c(OC)n1 (centres unmarked) [Example 220, 6-chloro-7-(4-(2-(2,4-dimethoxypyrimidin-5-yl)ethylcarbamoyl)phenoxy) chroman-4-carboxylic acid]
– | – | 3920 | O=C(Nc1cccc(-c2ccc(Cl)cc2)n1)c1ccc(Oc2cc3c(cc2Cl)[C@@H](C(=O)O)CCO3)cc1 (single isomer, unassigned; enantiomer 1) [Example 141, 6-Chloro-7-(4-(6-(4-chlorophenyl)pyridin-2-ylcarbamoyl)phenoxy)chroman-4-carboxylic acid, Enantiomer 1]
– | – | 76 | O=C(Nc1ccn(-c2cccc(Cl)c2F)n1)c1ccc(Oc2cc3c(cc2Cl)C(C(=O)O)CCO3)cc1 (centres unmarked) [Example 169, 6-chloro-7-(4-(1-(3-chloro-2-fluorophenyl)-1H-pyrazol-3-ylcarbamoyl)phenoxy)chroman-4-carboxylic acid]
– | – | 160 | O=C(Nc1ccc(-c2cccc(Cl)c2)nc1)c1ccc(Oc2c(Cl)cc3c(c2Cl)OCCC3C(=O)O)cc1 (centres unmarked) [Example 145, Sodium 6,8-dichloro-7-(4-(6-(3-chlorophenyl)pyridin-3-ylcarbamoyl)phenoxy)-chroman-4-carboxylate]
– | – | 292 | COc1ccc(-n2ccc(NC(=O)c3ccc(Oc4cc5c(cc4Cl)C(C(=O)O)CCO5)cc3)n2)cc1 (centres unmarked) [Example 170, 6-chloro-7-(4-(1-(4-methoxyphenyl)-1H-pyrazol-3-ylcarbamoyl)phenoxy)chroman-4-carboxylic acid]
43.3 | – | – | Cc1nc2ccc(NC(=O)c3ccc(Oc4cc5c(cc4C#N)C(C(=O)O)CCO5)cc3)cc2s1 (centres unmarked) [Example 189, 6-cyano-7-(4-(2-methylbenzo[d]thiazol-6-ylcarbamoyl)phenoxy) chroman-4-carboxylic acid]
– | – | 155 | CC(C)(C)c1cc(NC(=O)c2ccc(Oc3cc4c(cc3Cl)C(C(=O)O)CCO4)cc2)no1 (centres unmarked) [Example 158, 7-(4-(5-tert-butylisoxazol-3-ylcarbamoyl)phenoxy)-6-chlorochroman-4-carboxylic acid]
